These are literature values, as cited in patent publication US11660346B2, “Engineered microparticles for macromolecule delivery” (University of Pittsburgh-Of the Commonwealth System of …, priority 2009, dated 2023).

The conditions of the data set: parameter for polyanhydride disk prediction, FIG. 10.

For `CCCCN1CCCCC1C(=O)Nc1c(C)cccc1C` (centres unmarked) [bupivacaine], the “kdis (intrinsic dissolution rate constant)” value is listed as 0.046 mol/m^3 s. In addition, the “CAmx (maximum solubility of agent)” value (aqueous) is 2.184 mol/m^3.
